± gives the expanded uncertainty stated by the source.
What was measured:
[1] = 101 kPa, Liquid
[2] = xn = mol fraction of the nth substance listed; conditions: 101 kPa, Liquid

With `CCO` [ethanol] as the molecule, how does the mass density ([1]; 293.22 K) read?
The mass density was 789.54 ± 0.47 kg/m3.

And the mass density ([1]; 298.16 K)?
The mass density was 785.46 ± 0.47 kg/m3.

What about the mass density ([1]; 303.17 K) of the same molecule?
Its mass density is 781.05 ± 0.48 kg/m3.

And the mass density ([1]; 308.17 K)?
The mass density was 776.75 ± 0.49 kg/m3.

And the mass density ([1]; 313.17 K)?
Its mass density is 772.42 ± 0.49 kg/m3.

What about the mass density ([1]; 318.18 K) of the same molecule?
Its mass density is 768 ± 0.5 kg/m3.

Which results are given for `CCO` [ethanol] + CCCCCCC?
mass density ([2]; 293.22 K, x1 = 1): 789.54 ± 0.47 kg/m3; mass density ([2]; 298.16 K, x1 = 1): 785.46 ± 0.47 kg/m3; mass density ([2]; 303.17 K, x1 = 1): 781.05 ± 0.48 kg/m3; mass density ([2]; 308.17 K, x1 = 1): 776.75 ± 0.49 kg/m3; mass density ([2]; 313.17 K, x1 = 1): 772.42 ± 0.49 kg/m3; mass density ([2]; 318.18 K, x1 = 1): 768 ± 0.5 kg/m3

For `CCCCCCC` [heptane], which mass density ([1]; 293.22 K) is on record?
Its mass density is 683.82 ± 0.65 kg/m3.

What about the mass density ([1]; 298.16 K) of the same molecule?
Its mass density is 679.75 ± 0.65 kg/m3.

And the mass density ([1]; 303.17 K)?
Its mass density is 675.51 ± 0.66 kg/m3.

What about the mass density ([1]; 308.17 K) of the same molecule?
The mass density was 671.21 ± 0.67 kg/m3.

And the mass density ([1]; 313.17 K)?
The mass density was 666.97 ± 0.67 kg/m3.

What about the mass density ([1]; 318.18 K) of the same molecule?
Its mass density is 662.67 ± 0.68 kg/m3.

Which results are given for `CCCCCCC` [heptane] + CCO?
mass density ([2]; 293.21 K, x2 = 0.2043): 691.74 ± 0.63 kg/m3; mass density ([2]; 293.21 K, x2 = 0.3044): 697.14 ± 0.62 kg/m3; mass density ([2]; 293.21 K, x2 = 0.3971): 703.04 ± 0.61 kg/m3; mass density ([2]; 293.21 K, x2 = 0.4975): 710.62 ± 0.6 kg/m3; mass density ([2]; 293.21 K, x2 = 0.6954): 730.78 ± 0.57 kg/m3; mass density ([2]; 293.21 K, x2 = 0.8023): 745.94 ± 0.54 kg/m3; mass density ([2]; 293.21 K, x2 = 0.9009): 764.36 ± 0.51 kg/m3; mass density ([2]; 293.22 K, x2 = 0): 683.82 ± 0.65 kg/m3; mass density ([2]; 293.22 K, x2 = 0.0237): 684.36 ± 0.65 kg/m3; mass density ([2]; 293.22 K, x2 = 0.0507): 685.26 ± 0.64 kg/m3; mass density ([2]; 293.22 K, x2 = 0.1041): 687.27 ± 0.64 kg/m3; mass density ([2]; 293.22 K, x2 = 0.6043): 720.54 ± 0.58 kg/m3; mass density ([2]; 293.22 K, x2 = 0.9531): 776.53 ± 0.49 kg/m3; mass density ([2]; 298.16 K, x2 = 0): 679.75 ± 0.65 kg/m3; mass density ([2]; 298.17 K, x2 = 0.0237): 680.19 ± 0.65 kg/m3; mass density ([2]; 298.17 K, x2 = 0.0507): 681.04 ± 0.65 kg/m3; mass density ([2]; 298.17 K, x2 = 0.1041): 683.06 ± 0.65 kg/m3; mass density ([2]; 298.17 K, x2 = 0.2043): 687.5 ± 0.64 kg/m3; mass density ([2]; 298.17 K, x2 = 0.3044): 692.93 ± 0.63 kg/m3; mass density ([2]; 298.17 K, x2 = 0.3971): 698.76 ± 0.62 kg/m3; mass density ([2]; 298.17 K, x2 = 0.4975): 706.35 ± 0.6 kg/m3; mass density ([2]; 298.17 K, x2 = 0.6043): 716.27 ± 0.59 kg/m3; mass density ([2]; 298.17 K, x2 = 0.6954): 726.58 ± 0.57 kg/m3; mass density ([2]; 298.17 K, x2 = 0.8023): 741.81 ± 0.54 kg/m3; mass density ([2]; 298.17 K, x2 = 0.9009): 760.18 ± 0.51 kg/m3; mass density ([2]; 298.17 K, x2 = 0.9531): 772.37 ± 0.49 kg/m3; mass density ([2]; 303.17 K, x2 = 0): 675.51 ± 0.66 kg/m3; mass density ([2]; 303.17 K, x2 = 0.0237): 675.81 ± 0.66 kg/m3; mass density ([2]; 303.17 K, x2 = 0.0507): 676.65 ± 0.66 kg/m3; mass density ([2]; 303.17 K, x2 = 0.1041): 678.74 ± 0.65 kg/m3; mass density ([2]; 303.17 K, x2 = 0.2043): 683.12 ± 0.64 kg/m3; mass density ([2]; 303.17 K, x2 = 0.3044): 688.45 ± 0.63 kg/m3; mass density ([2]; 303.17 K, x2 = 0.3971): 694.32 ± 0.62 kg/m3; mass density ([2]; 303.17 K, x2 = 0.4975): 701.88 ± 0.61 kg/m3; mass density ([2]; 303.17 K, x2 = 0.6043): 711.77 ± 0.59 kg/m3; mass density ([2]; 303.17 K, x2 = 0.6954): 722.09 ± 0.58 kg/m3; mass density ([2]; 303.17 K, x2 = 0.8023): 737.39 ± 0.55 kg/m3; mass density ([2]; 303.17 K, x2 = 0.9009): 755.87 ± 0.52 kg/m3; mass density ([2]; 303.17 K, x2 = 0.9531): 768.14 ± 0.5 kg/m3; mass density ([2]; 308.17 K, x2 = 0): 671.21 ± 0.67 kg/m3; mass density ([2]; 308.17 K, x2 = 0.0237): 671.53 ± 0.66 kg/m3; mass density ([2]; 308.17 K, x2 = 0.0507): 672.35 ± 0.66 kg/m3; mass density ([2]; 308.17 K, x2 = 0.1041): 674.32 ± 0.66 kg/m3; mass density ([2]; 308.17 K, x2 = 0.2043): 678.62 ± 0.65 kg/m3; mass density ([2]; 308.17 K, x2 = 0.3044): 683.9 ± 0.64 kg/m3; mass density ([2]; 308.17 K, x2 = 0.3971): 689.82 ± 0.63 kg/m3; mass density ([2]; 308.17 K, x2 = 0.4975): 697.41 ± 0.62 kg/m3; mass density ([2]; 308.17 K, x2 = 0.6043): 707.35 ± 0.6 kg/m3; mass density ([2]; 308.17 K, x2 = 0.6954): 717.65 ± 0.58 kg/m3; mass density ([2]; 308.17 K, x2 = 0.8023): 733.18 ± 0.56 kg/m3; mass density ([2]; 308.17 K, x2 = 0.9009): 751.57 ± 0.53 kg/m3; mass density ([2]; 308.17 K, x2 = 0.9531): 763.83 ± 0.51 kg/m3; mass density ([2]; 313.17 K, x2 = 0): 666.97 ± 0.67 kg/m3; mass density ([2]; 313.17 K, x2 = 0.0237): 667.19 ± 0.67 kg/m3; mass density ([2]; 313.17 K, x2 = 0.0507): 667.92 ± 0.67 kg/m3; mass density ([2]; 313.17 K, x2 = 0.1041): 669.78 ± 0.67 kg/m3; mass density ([2]; 313.17 K, x2 = 0.2043): 674.12 ± 0.66 kg/m3; mass density ([2]; 313.17 K, x2 = 0.3044): 679.46 ± 0.65 kg/m3; mass density ([2]; 313.17 K, x2 = 0.3971): 685.29 ± 0.64 kg/m3; mass density ([2]; 313.17 K, x2 = 0.4975): 692.92 ± 0.62 kg/m3; mass density ([2]; 313.17 K, x2 = 0.6043): 702.8 ± 0.61 kg/m3; mass density ([2]; 313.17 K, x2 = 0.6954): 713.21 ± 0.59 kg/m3; mass density ([2]; 313.17 K, x2 = 0.8023): 728.57 ± 0.57 kg/m3; mass density ([2]; 313.17 K, x2 = 0.9009): 747.21 ± 0.53 kg/m3; mass density ([2]; 313.17 K, x2 = 0.9531): 759.41 ± 0.51 kg/m3; mass density ([2]; 318.17 K, x2 = 0.0237): 663.59 ± 0.68 kg/m3; mass density ([2]; 318.17 K, x2 = 0.1041): 665.46 ± 0.67 kg/m3; mass density ([2]; 318.17 K, x2 = 0.2043): 669.66 ± 0.66 kg/m3; mass density ([2]; 318.17 K, x2 = 0.3044): 674.88 ± 0.65 kg/m3; mass density ([2]; 318.17 K, x2 = 0.3971): 680.74 ± 0.64 kg/m3; mass density ([2]; 318.17 K, x2 = 0.4975): 688.34 ± 0.63 kg/m3; mass density ([2]; 318.17 K, x2 = 0.6043): 698.25 ± 0.61 kg/m3; mass density ([2]; 318.17 K, x2 = 0.6954): 708.71 ± 0.59 kg/m3; mass density ([2]; 318.17 K, x2 = 0.8023): 724.14 ± 0.57 kg/m3; mass density ([2]; 318.17 K, x2 = 0.9009): 742.91 ± 0.54 kg/m3; mass density ([2]; 318.18 K, x2 = 0): 662.67 ± 0.68 kg/m3; mass density ([2]; 318.18 K, x2 = 0.0507): 662.82 ± 0.68 kg/m3; mass density ([2]; 318.18 K, x2 = 0.9531): 754.95 ± 0.52 kg/m3

— the NIST ThermoML archive (doi:10.1016/j.jct.2004.12.002)
